What is called pIC50 is the IC50 on a negative log10 scale, so that one unit is a factor of ten. High values mean a low IC50, low ones a high IC50.

Our source for the IC50 values is paper PMC4808398 (Cell, 2016).

Test [1] concerns the target CASTOR1 homodimer-GATOR2 complex (Homo sapiens, UniProt Q8WTX7). Format: binding.
Test [2] addresses CASTOR1-CASTOR2 heterodimer-GATOR2 complex (Homo sapiens, UniProt Q8WTX7). Format: binding.

pIC50: −log10 of the molar value.

Sequence of CASTOR1 homodimer-GATOR2 complex (Q8WTX7 whole entry): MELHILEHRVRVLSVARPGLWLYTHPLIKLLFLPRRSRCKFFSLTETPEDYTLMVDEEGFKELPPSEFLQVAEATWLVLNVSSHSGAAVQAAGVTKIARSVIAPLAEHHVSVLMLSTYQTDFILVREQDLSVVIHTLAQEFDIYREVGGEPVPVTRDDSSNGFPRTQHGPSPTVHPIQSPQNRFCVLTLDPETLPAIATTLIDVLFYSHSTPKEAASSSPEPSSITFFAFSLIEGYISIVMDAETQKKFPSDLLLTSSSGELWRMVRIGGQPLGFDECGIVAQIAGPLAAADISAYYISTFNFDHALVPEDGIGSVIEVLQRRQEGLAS
Sequence of CASTOR1 homodimer-GATOR2 complex (Q9NXC5 whole entry partner): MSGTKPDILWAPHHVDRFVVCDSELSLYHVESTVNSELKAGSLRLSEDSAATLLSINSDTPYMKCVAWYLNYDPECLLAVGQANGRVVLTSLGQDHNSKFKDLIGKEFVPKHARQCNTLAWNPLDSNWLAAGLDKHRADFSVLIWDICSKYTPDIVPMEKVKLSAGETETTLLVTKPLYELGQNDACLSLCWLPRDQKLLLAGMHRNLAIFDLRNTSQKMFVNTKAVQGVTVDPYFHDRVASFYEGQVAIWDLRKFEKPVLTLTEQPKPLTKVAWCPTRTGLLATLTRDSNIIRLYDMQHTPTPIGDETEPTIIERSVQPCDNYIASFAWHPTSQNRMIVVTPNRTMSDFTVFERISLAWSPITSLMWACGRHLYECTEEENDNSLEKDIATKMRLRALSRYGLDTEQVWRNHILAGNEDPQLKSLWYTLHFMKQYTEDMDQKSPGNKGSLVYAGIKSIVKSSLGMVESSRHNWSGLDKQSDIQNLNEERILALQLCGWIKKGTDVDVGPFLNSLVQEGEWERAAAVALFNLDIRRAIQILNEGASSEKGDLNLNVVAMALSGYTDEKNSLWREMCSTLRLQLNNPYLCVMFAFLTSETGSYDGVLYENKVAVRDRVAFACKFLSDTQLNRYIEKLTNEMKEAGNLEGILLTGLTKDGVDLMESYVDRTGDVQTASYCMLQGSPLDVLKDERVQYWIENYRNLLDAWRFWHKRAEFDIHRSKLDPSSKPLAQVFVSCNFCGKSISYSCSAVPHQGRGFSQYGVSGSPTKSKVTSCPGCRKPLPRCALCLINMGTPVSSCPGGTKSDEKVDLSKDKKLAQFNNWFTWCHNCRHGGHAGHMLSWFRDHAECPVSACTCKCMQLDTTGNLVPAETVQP
Sequence of CASTOR1 homodimer-GATOR2 complex (Q96S15 whole entry partner): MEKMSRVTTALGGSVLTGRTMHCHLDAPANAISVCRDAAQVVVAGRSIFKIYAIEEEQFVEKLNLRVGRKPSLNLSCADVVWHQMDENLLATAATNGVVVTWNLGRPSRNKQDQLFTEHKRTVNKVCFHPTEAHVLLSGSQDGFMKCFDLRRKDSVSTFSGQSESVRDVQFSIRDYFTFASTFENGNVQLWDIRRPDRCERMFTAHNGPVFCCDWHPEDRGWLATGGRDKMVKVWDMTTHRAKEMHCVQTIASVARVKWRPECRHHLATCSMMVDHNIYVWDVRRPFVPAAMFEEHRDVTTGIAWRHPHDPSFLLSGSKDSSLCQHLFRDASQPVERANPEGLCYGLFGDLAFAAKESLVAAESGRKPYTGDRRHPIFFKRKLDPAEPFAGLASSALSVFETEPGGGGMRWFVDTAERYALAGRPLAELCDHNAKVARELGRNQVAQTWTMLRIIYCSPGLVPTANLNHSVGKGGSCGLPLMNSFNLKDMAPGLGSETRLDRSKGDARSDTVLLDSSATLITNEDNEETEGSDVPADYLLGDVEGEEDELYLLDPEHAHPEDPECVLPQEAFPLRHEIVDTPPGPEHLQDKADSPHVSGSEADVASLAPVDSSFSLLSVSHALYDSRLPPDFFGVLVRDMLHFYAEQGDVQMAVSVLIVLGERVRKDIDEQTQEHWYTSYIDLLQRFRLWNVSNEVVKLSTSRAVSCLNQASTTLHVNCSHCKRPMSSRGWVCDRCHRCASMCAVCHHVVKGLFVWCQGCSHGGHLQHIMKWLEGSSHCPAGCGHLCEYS
Sequence of CASTOR1 homodimer-GATOR2 complex (Q6PJI9 whole entry partner): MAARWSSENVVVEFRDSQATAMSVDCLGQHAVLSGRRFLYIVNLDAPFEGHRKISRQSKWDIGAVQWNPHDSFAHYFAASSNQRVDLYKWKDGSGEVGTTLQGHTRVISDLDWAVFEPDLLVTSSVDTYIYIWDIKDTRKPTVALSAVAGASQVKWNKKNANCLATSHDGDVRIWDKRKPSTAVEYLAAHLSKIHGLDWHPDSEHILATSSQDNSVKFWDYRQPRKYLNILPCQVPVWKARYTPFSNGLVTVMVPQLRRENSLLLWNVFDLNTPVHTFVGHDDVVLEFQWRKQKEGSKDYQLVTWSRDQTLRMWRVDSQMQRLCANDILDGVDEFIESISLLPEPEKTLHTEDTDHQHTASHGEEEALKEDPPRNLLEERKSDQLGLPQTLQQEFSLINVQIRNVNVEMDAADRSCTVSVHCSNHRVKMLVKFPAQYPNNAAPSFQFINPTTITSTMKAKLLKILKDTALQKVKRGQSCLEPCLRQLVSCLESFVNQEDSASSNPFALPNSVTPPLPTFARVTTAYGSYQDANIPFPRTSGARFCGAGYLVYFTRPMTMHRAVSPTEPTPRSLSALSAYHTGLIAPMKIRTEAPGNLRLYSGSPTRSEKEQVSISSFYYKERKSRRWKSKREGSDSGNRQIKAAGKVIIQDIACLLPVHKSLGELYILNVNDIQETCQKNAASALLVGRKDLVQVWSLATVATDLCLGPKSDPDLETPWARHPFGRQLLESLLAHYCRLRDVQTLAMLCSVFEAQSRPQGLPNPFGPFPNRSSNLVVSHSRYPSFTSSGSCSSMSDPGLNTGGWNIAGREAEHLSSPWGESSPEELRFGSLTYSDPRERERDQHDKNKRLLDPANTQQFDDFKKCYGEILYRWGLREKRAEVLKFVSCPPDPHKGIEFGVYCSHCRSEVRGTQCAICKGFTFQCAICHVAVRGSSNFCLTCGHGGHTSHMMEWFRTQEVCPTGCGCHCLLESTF
Sequence of CASTOR1 homodimer-GATOR2 complex (Q96EE3 whole entry partner): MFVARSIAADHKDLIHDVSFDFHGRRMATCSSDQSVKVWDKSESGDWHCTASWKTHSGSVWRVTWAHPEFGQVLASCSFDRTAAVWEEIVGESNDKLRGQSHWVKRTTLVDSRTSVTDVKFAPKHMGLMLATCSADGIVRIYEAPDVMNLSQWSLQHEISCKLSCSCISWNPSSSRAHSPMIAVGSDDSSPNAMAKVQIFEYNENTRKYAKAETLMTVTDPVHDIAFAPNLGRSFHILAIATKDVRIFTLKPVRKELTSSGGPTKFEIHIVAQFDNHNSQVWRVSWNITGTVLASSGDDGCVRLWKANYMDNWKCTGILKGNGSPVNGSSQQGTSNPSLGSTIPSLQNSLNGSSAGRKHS
Sequence of CASTOR1 homodimer-GATOR2 complex (P55735 2-322 partner): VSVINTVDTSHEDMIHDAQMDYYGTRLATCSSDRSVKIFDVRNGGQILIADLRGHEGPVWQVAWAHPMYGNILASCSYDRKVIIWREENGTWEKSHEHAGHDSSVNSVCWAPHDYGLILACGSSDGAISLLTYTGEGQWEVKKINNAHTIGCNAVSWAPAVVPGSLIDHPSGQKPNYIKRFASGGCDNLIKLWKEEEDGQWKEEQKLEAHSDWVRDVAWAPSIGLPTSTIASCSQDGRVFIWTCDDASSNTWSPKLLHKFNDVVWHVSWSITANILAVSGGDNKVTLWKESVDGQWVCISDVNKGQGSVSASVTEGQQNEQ

Turning to `N=C(N)NCCC[C@H](N)C(=O)O` [arginine], the negative-log IC50 (pIC50) in test [1] and in test [2] was 4.40 to 4.70 throughout.
